This is an account of results in PubChem BioAssay (NCI).

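All cell lines were grown in 96-well plates and treated with compound for 48 hours. GI50: concentration for 50% inhibition of growth. TGI is the concentration that stops growth completely.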

Some test systems named below: A549 NSCLC; HCC-2998 colon; KM12 colon; M14 melanoma; NCI-H460 lung; OVCAR-8 ovarian; PC-3 prostate; SF-268 CNS; U251 CNS; UO-31 renal.
Test in all cases: NCI anticancer screen, dose series, 48 h

Consider `Cc1ccc(OCCOCCOCCOCCOCCOc2ccc(C)n(O)c2=S)c(=S)n1O`, for which the GI50 is 0.0741 µM in the test on A549 NSCLC; 0.444 µM in the test with HCC-2998 colon; 0.0573 µM with KM12 colon; 0.0619 µM in the test on M14 melanoma; 0.0252 µM in the test on NCI-H460 lung; 0.0384 µM with OVCAR-8 ovarian. Moreover, the GI50 in the test on PC-3 prostate is 0.345 µM; in the test on SF-268 CNS, 0.0693 µM; with U251 CNS it was 0.0633 µM; in the test on UO-31 renal, 0.0377 µM. Besides, the TGI with A549 NSCLC was above 100 µM; in the test on HCC-2998 colon, 46.9 µM; with KM12 colon it was 39.1 µM; with M14 melanoma, 0.43 µM; in the test with NCI-H460 lung, 11.6 µM; with OVCAR-8 ovarian, above 100 µM. The TGI in the test on PC-3 prostate is above 100 µM; in the test with SF-268 CNS, above 100 µM; in the test on U251 CNS, above 100 µM; in the test with UO-31 renal, 2.02 µM.

As for `C/C=C(\C)C(=O)O[C@H]1C=CC(=O)O[C@H]1COC(=O)[C@H](C)O`, the GI50 in the test on A549 NSCLC was 15.5 µM; in the test with HCC-2998 colon, 14.9 µM; with KM12 colon, 8.81 µM; in the test on M14 melanoma, 7.51 µM; in the test with NCI-H460 lung it was 10.3 µM; with OVCAR-8 ovarian it was 12.2 µM. For the same compound, the GI50 in the test with PC-3 prostate is 11 µM; in the test on SF-268 CNS it was 4.32 µM; in the test with U251 CNS it was 7.35 µM; with UO-31 renal, 9.79 µM. The TGI with A549 NSCLC amounted to 35.3 µM; in the test on HCC-2998 colon it was 30 µM; with KM12 colon, 27 µM; in the test with M14 melanoma, 23.1 µM; with NCI-H460 lung, 29.1 µM; with OVCAR-8 ovarian it was 28.3 µM. Moreover, the TGI worked out at 28.9 µM in the test with PC-3 prostate, 17.6 µM in the test with SF-268 CNS, 21 µM in the test with U251 CNS and 25.5 µM in the test on UO-31 renal.

As to `COC(=O)c1oc2c(C(=O)/C=C/c3ccc(OC)cc3)c(OCCN3CCOCC3)ccc2c1C`, the GI50 in the test on A549 NSCLC was 2.22 µM; in the test on HCC-2998 colon, 1.64 µM; in the test with KM12 colon, 1.77 µM; in the test with M14 melanoma, 3.11 µM; in the test with NCI-H460 lung it was 1.91 µM; in the test with OVCAR-8 ovarian, 1.8 µM. For the same compound, the GI50 in the test with PC-3 prostate is 1.84 µM; in the test on SF-268 CNS, 2.05 µM; with U251 CNS it was 1.4 µM; in the test with UO-31 renal, 1.89 µM. Further, the TGI was 6.07 µM in the test with A549 NSCLC; 3.17 µM with HCC-2998 colon; 3.78 µM with KM12 colon; 12.1 µM with M14 melanoma; 4.75 µM in the test on NCI-H460 lung; 4.7 µM in the test with OVCAR-8 ovarian. For the same compound, the TGI was 6.88 µM in the test on PC-3 prostate, 5.76 µM in the test on SF-268 CNS, 2.74 µM in the test on U251 CNS and 5.25 µM in the test with UO-31 renal.

On to `N#Cc1c(N/N=C\c2ccc(Cl)cc2)nc(N)nc1N1CCOCC1`, for which the GI50 is 29.6 µM with A549 NSCLC; 22 µM in the test with HCC-2998 colon; 36.1 µM with KM12 colon; 67.4 µM in the test on M14 melanoma; 87.7 µM in the test with NCI-H460 lung; 31.4 µM in the test with OVCAR-8 ovarian. In addition, the GI50 was 24.6 µM with PC-3 prostate, above 100 µM in the test on SF-268 CNS, 40.4 µM in the test on U251 CNS and 39.6 µM in the test on UO-31 renal. In addition, the TGI with A549 NSCLC, in the test on HCC-2998 colon, in the test with KM12 colon, in the test with M14 melanoma, with NCI-H460 lung and in the test on OVCAR-8 ovarian was above 100 µM in each case. The TGI in the test with PC-3 prostate, in the test with SF-268 CNS, with U251 CNS and in the test with UO-31 renal was above 100 µM each time.

For the compound `Cn1cc(C2=C(c3cn(CCCCCO)c4ccccc34)C(=O)NC2=O)c2ccccc21`, the GI50 with A549 NSCLC was 6.19 µM; in the test with HCC-2998 colon, 7.47 µM; in the test with KM12 colon, 4.22 µM; in the test on M14 melanoma, 5.38 µM; in the test with NCI-H460 lung, 6.01 µM; with OVCAR-8 ovarian, 6.3 µM. Also, the GI50 in the test on PC-3 prostate is 6.88 µM; in the test with SF-268 CNS, 6.34 µM; in the test with U251 CNS, 5.98 µM; in the test with UO-31 renal, 4.11 µM. Further, the TGI in the test with A549 NSCLC is 24 µM; in the test with HCC-2998 colon it was above 20.6 µM; in the test with KM12 colon it was 16.1 µM; in the test on M14 melanoma, above 25 µM; in the test with NCI-H460 lung it was 14.8 µM; in the test on OVCAR-8 ovarian it was above 20.2 µM. Moreover, the TGI was above 24.1 µM in the test with PC-3 prostate, 19.1 µM in the test with SF-268 CNS, above 17.3 µM in the test with U251 CNS and 12.9 µM in the test on UO-31 renal.

Turning to `COc1ccc2c(c1)C(c1cc(OC)c3c(c1)OCO3)C1=C(COC1=O)N2` (centres undefined), the GI50 is 0.445 µM in the test with A549 NSCLC; 0.432 µM in the test on HCC-2998 colon; 0.227 µM in the test with KM12 colon; 0.233 µM with M14 melanoma; 0.348 µM in the test with NCI-H460 lung; 0.504 µM in the test with OVCAR-8 ovarian. In addition, the GI50 is 0.356 µM in the test with PC-3 prostate, 0.691 µM in the test with SF-268 CNS, 0.419 µM with U251 CNS and 5.05 µM in the test on UO-31 renal. Further, the TGI in the test with A549 NSCLC was above 100 µM; in the test with KM12 colon, 3.25 µM; in the test with M14 melanoma, 0.742 µM; with NCI-H460 lung it was above 20.4 µM; in the test on OVCAR-8 ovarian, above 40.7 µM; with PC-3 prostate, above 100 µM. Moreover, the TGI is above 89.2 µM with SF-268 CNS, above 47.9 µM with U251 CNS and above 100 µM in the test with UO-31 renal.

Take `C=CC(=O)N1CC[C@H](n2nc(C#Cc3cc(OC)cc(OC)c3)c3c(N)ncnc32)C1`: the GI50 in the test with A549 NSCLC was 9.78 µM; in the test with HCC-2998 colon, 17.2 µM; in the test with KM12 colon, 11.2 µM; in the test on M14 melanoma, 15.3 µM; in the test with NCI-H460 lung, 9.97 µM; with OVCAR-8 ovarian, 8.36 µM. In addition, the GI50 with PC-3 prostate is 11.3 µM; with SF-268 CNS, 4.19 µM; in the test on U251 CNS, 6.38 µM; with UO-31 renal, 1.32 µM. For the same compound, the TGI with A549 NSCLC, with HCC-2998 colon, with KM12 colon, with M14 melanoma, in the test with NCI-H460 lung and with OVCAR-8 ovarian was above 100 µM in each case. Besides, the TGI with PC-3 prostate, in the test on SF-268 CNS, in the test with U251 CNS and in the test on UO-31 renal was above 100 µM each time.

`C=C1C(=O)C2=CC1CCC(=O)C1(C)CCC(OC(C)=O)C(C)(C)C1CC2O` (centres undefined): the TGI was 22.4 µM in the test on A549 NSCLC; 4 µM with HCC-2998 colon; 15.9 µM in the test with KM12 colon; 10.4 µM in the test on M14 melanoma; 4.64 µM in the test on NCI-H460 lung; 16.5 µM with OVCAR-8 ovarian. For the same compound, the TGI in the test on PC-3 prostate is 28.8 µM; in the test with SF-268 CNS, 38.7 µM; in the test on U251 CNS it was above 47.1 µM; in the test on UO-31 renal it was 5.38 µM.

Regarding `Nc1nn(C(=O)Nc2c(F)cccc2F)c2ccccc12`, the GI50 in the test with A549 NSCLC was 48.5 µM; in the test on HCC-2998 colon, 95.8 µM; in the test with KM12 colon, 86.2 µM; in the test on M14 melanoma it was 74.6 µM; with NCI-H460 lung, 33.4 µM; in the test with OVCAR-8 ovarian, 44.2 µM. For the same compound, the GI50 was above 100 µM in the test with PC-3 prostate, 36.2 µM in the test with SF-268 CNS, 96.1 µM in the test on U251 CNS and 18.6 µM in the test on UO-31 renal. For the same compound, the TGI in the test with A549 NSCLC, in the test on HCC-2998 colon, with KM12 colon, in the test on M14 melanoma, in the test on NCI-H460 lung and with OVCAR-8 ovarian was above 100 µM in each case. The TGI with PC-3 prostate, in the test on SF-268 CNS, with U251 CNS and in the test with UO-31 renal was above 100 µM each time.

For the compound `CN1C(=O)C2(c3ccccc31)C1CC3C(CO1)C1C2C3(CO)CN1C#N` (centres undefined), the TGI with A549 NSCLC, in the test on HCC-2998 colon, in the test with KM12 colon, in the test on M14 melanoma, in the test with NCI-H460 lung and in the test on OVCAR-8 ovarian was above 100 µM each time. In addition, the TGI with PC-3 prostate, in the test on SF-268 CNS, in the test with U251 CNS and with UO-31 renal was above 100 µM throughout.

In the case of `OCC1CCCC1O` (centres undefined), the TGI with A549 NSCLC, in the test with HCC-2998 colon, in the test on KM12 colon, in the test on M14 melanoma, in the test with NCI-H460 lung and with OVCAR-8 ovarian was above 100 µM in each case. The TGI in the test with PC-3 prostate, in the test on SF-268 CNS, with U251 CNS and in the test on UO-31 renal was above 100 µM each time.

For `CCCN(CCC)c1ccc(C=O)c(C)c1`, the GI50 in the test with A549 NSCLC was 70.7 µM; in the test on HCC-2998 colon, 52.4 µM; with KM12 colon it was 44.7 µM; in the test on M14 melanoma it was 44.8 µM; in the test on NCI-H460 lung it was 46.5 µM; in the test with OVCAR-8 ovarian, 57.2 µM. The GI50 with PC-3 prostate is 32.7 µM; with SF-268 CNS, 68 µM; in the test on U251 CNS, 38.5 µM; with UO-31 renal, 21.5 µM. Besides, the TGI in the test on A549 NSCLC, in the test on HCC-2998 colon, with KM12 colon, with M14 melanoma, in the test on NCI-H460 lung and in the test with OVCAR-8 ovarian was above 100 µM each time. Moreover, the TGI in the test on PC-3 prostate, in the test on SF-268 CNS, with U251 CNS and in the test on UO-31 renal was above 100 µM each time.

With `O=C(O)Cc1ccc(N=Nc2c(O)c(C(=O)O)cc3ccccc23)cc1`, the TGI in the test on A549 NSCLC, in the test with HCC-2998 colon, in the test with KM12 colon, with M14 melanoma, in the test on NCI-H460 lung and in the test with OVCAR-8 ovarian was above 100 µM in each case. Moreover, the TGI in the test on PC-3 prostate, with SF-268 CNS, in the test with U251 CNS and in the test on UO-31 renal was above 100 µM each time.

In the case of `O=[N+]([O-])c1ccc2c(c1)C(c1ccccc1Cl)=Nc1c(n[nH]c1-c1cccnc1)N2`, the GI50 in the test on A549 NSCLC was above 25 µM; with HCC-2998 colon, above 25 µM; with KM12 colon, 9.41 µM; in the test on M14 melanoma, above 25 µM; with NCI-H460 lung, above 25 µM; in the test on OVCAR-8 ovarian, above 25 µM. The GI50 with PC-3 prostate, in the test on SF-268 CNS, in the test with U251 CNS and with UO-31 renal was above 25 µM in each case. The TGI in the test with A549 NSCLC, in the test with HCC-2998 colon, with KM12 colon, in the test on M14 melanoma, in the test with NCI-H460 lung and in the test on OVCAR-8 ovarian was above 25 µM each time. The TGI with PC-3 prostate, in the test with SF-268 CNS, in the test on U251 CNS and with UO-31 renal was above 25 µM each time.
